Test results reported in patent publication US11560391B2, “Sulfonylurea compounds as inhibitors of interleukin-1 activity” (Genentech, Inc., priority 2018, dated 2023).
Like-named read-outs stand apart in the source and are kept apart here.

What was measured:
NLRP3 inflammasome = target: T1, NLRP3 inflammasome (Homo sapiens, UniProt Q96P20); experiment: NLRP3 inflammasome activation assay in LPS-primed, nigericin-stimulated PBMCs, IL-1β release; type: cell-based; conditions: 10 μM nigericin
T1 construct: freshly isolated from human peripheral blood from healthy donors; StemCells Technologies; host or cells: primary human PBMCs
T1 sequence (Q96P20 whole entry): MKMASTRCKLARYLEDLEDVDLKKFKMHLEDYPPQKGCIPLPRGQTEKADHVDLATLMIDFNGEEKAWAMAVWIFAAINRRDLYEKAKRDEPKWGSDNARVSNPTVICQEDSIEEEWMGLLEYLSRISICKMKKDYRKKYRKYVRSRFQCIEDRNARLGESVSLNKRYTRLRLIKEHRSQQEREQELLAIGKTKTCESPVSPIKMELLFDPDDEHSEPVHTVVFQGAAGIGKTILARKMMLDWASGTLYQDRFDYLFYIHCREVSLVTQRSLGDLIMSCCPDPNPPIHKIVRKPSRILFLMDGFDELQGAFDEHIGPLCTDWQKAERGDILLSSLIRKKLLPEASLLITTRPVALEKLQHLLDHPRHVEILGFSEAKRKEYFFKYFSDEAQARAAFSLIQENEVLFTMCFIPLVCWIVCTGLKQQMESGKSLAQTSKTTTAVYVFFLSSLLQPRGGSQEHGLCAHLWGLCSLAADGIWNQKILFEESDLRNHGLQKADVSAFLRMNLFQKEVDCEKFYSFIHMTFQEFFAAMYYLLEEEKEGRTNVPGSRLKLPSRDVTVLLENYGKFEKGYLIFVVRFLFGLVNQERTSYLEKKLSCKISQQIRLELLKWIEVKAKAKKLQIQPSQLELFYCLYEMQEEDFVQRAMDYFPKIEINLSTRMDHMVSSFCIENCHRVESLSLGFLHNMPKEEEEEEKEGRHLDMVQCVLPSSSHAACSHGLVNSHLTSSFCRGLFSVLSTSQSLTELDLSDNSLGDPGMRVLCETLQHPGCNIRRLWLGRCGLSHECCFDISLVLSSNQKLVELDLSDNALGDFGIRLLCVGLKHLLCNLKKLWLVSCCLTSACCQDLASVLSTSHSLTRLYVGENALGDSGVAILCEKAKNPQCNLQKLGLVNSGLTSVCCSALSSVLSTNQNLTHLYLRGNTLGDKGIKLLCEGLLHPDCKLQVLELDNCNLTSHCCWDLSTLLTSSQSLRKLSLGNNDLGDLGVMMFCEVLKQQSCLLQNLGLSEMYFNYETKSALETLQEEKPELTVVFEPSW
In short: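 Fresh or cryopreserved human PBMCs primed with 100 ng/mL LPS for 3 h, pre-incubated 30 min with compound (0.00017-10 uM, or 2-fold 20-point series from 40 μM), then stimulated with 10 μM nigericin for 1.5 h at 37 °C. Supernatant IL-1β measured by ELISA or by HTRF (665/620 ratio).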

PBMCs = experiment: CTG (CellTiter-Glo) viability assay of compound-treated LPS and nigericin stimulated PBMCs; type: cell-based, human; conditions: Homo sapiens, PBMC
In short: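 Human PBMCs primed with 100 ng/mL LPS for 3 h, pre-incubated 30 min with compound (0.00017–10 uM) in FBS-free medium, then stimulated with 10 μM nigericin for 1.5 h. Viability read by CellTiter-Glo ATP luminescence as a cytotoxicity counter-screen.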

TNFα = TNFα levels of LPS and nigericin stimulated PBMCs (counter-screen); type: cell-based; conditions: Homo sapiens, PBMC
Procedure: Human peripheral blood mononuclear cells (PBMCs), consisting of lymphocytes (T, B and NK cells), monocytes and dendritic cells, are freshly isolated from human peripheral blood from healthy donors. Cells are obtained through an IRB approved donor program by iXCells Biotechnologies where all the donors are tested for bacterial and viral infections. Cells are purified from peripheral blood using ficoll gradient centrifugation.
Fresh or cryopreserved PMBCs are seeded in V-bottom 96-well plate at 0.5-1×10^5 cells per well and incubated overnight at 37° C. with 5% CO2 in RPMI 1640 medium with GlutaMAX supplement, 4.5 g/L D-glucose, 10% Fetal Bovine Serum (FBS), […] Sodium Pyruvate, 1% Penicillin/Streptomycin, 10 mM HEPES and 0.05 mM of […]. Freshly isolated or cryopreserved KCs cells are seeded in flat-bottom 96-well plates at 0.6-1.5×10^5 cells/well and incubated overnight at 37° C., 5% CO2 in RPMI 1640 Medium with GlutaMAX supplement, FBS, 1% Penicillin/Streptomycin and 10 mM HEPES. The following day, the cells are primed with 100 ng/mL of lipopolysaccharides (LPS; Sigma Aldrich) in FBS-free RPMI 1640 for 3 h. After the priming step, the media is removed and PBMCs are pre-incubated with serial concentrations of test compounds (0.00017-10 uM) or vehicle (DMSO) for 30 min in FBS-free media prior to addition of the NLRP3 activator. Cells are then stimulated with 10 μM Nigericin (Sigma Aldrich; InvivoGen) for 1.5 h. Plates were centrifuged at 1,500 rpm for 3 minutes to pellet cells and supernatant was transferred into new plates for subsequent experiments.
For ELISA assays cells are seeded into 96-well plates. Post study, supernatants are removed and the levels of mature IL-1β, IL18 and TNFα (Quantikine ELISA, R&D systems) are measured in cell conditioned media by ELISA according to manufacturer's instructions.
TNFα levels of LPS and nigericin stimulated cells are measured by HTRF assay (Cisbio, Bedford, Mass.). […] Measuring TNFalpha production also serves as a technical counter-screen to eliminate compounds that interfere with the HTRF reagents. Thus compounds that inhibit both IL-1β and TNFα levels are triaged for either being non-selective for inflammasome or interfering with the HTRF readout.

THP-1 ASC-GFP cells = experiment: THP-1 ASC-GFP speck assay (NLRP3 inflammasome activation, nigericin); type: cell-based; conditions: THP1-ASC-GFP; PMA-differentiated, LPS primed, 10 μM nigericin
In short: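 PMA-differentiated (500 ng/ml, overnight) THP-1 ASC-GFP cells primed with LPS 1 μg/mL for 3 h, pre-treated 30 min with compound (20-point, 2-fold from 40 μM), then nigericin 10 μM for 90 min. After fixation, imaging gives % cells with ASC-GFP specks against Hoechst-counted nuclei.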

[1] = PBMC, LPS priming, read-out: PMBC IL-1β IC50

SMILES | IC50 (NLRP3 inflammasome; [1]) | IC50 (PBMCs; read-out: PMBC CTG IC50) | IC50 (TNFα; read-out: PMBC TNFα IC50) | IC50 (THP-1 ASC-GFP cells) | IC50 (NLRP3 inflammasome; LPS 100 ng/mL priming, read-out: IL-1B pIC50 (converted)) | IC50 (PBMCs; LPS and nigericin stimulated cells, read-out: CTG pIC50 (converted)) | IC50 (TNFα; LPS and nigericin stimulated cells, read-out: TNFa pIC50 (converted))
CC(C)c1cc(C(F)(F)F)nc(C(C)C)c1NC(=O)NS(=O)(=O)c1cnn2c1OCCC2 [Example 54, N-((2,4-diisopropyl-6-(trifluoromethyl)pyridin-3-yl)carbamoyl)-6,7-dihydro-5H-pyrazolo[5,1-b][1,3]oxazine-3-sulfonamide] | 320 nM | 16 nM | > 10000 nM | 620 nM | – | – | –
COc1cc(C(C)C)c(NC(=O)NS(=O)(=O)c2cnn3c2OC[C@@H](N(C)C)C3)c(C(C)C)n1 [Example 52a, (S)—N-((2,4-diisopropyl-6-methoxypyridin-3-yl)carbamoyl)-6-(dimethylamino)-6,7-dihydro-5H-pyrazolo[5,1-b][1,3]oxazine-3-sulfonamide] | 790 nM | 390 nM | > 10000 nM | 500 nM | – | – | –
CNc1cc(C(C)C)c(NC(=O)NS(=O)(=O)c2cnn3c2OCCC3)c(C(C)C)n1 [Example 53, N-((2,4-diisopropyl-6-(methylamino)pyridin-3-yl)carbamoyl)-6,7-dihydro-5H-pyrazolo[5,1-b][1,3]oxazine-3-sulfonamide] | 3400 nM | 880 nM | > 10000 nM | 3300 nM | – | – | –
Cc1cc(C(C)C)c(NC(=O)NS(=O)(=O)c2cnn3c2OCCC3)c(C(C)C)n1 [Example 48, N-((2,4-diisopropyl-6-methylpyridin-3-yl)carbamoyl)-6,7-dihydro-5H-pyrazolo[5,1-b][1,3]oxazine-3-sulfonamide] | 2470 nM | 2430 nM | > 10000 nM | 2000 nM | – | – | –
COc1cc(C(C)C)c(NC(=O)NS(=O)(=O)c2cnn3c2OCC(C)(C)C3)c(C(C)C)n1 [Example 47, N-((2,4-diisopropyl-6-methoxypyridin-3-yl)carbamoyl)-6,6-dimethyl-6,7-dihydro-5H-pyrazolo[5,1-b][1,3]oxazine-3-sulfonamide] | 2010 nM | 1160 nM | > 10000 nM | 8300 nM | – | – | –
CC(C)NC(=O)NS(=O)(=O)c1cnn2c1OCC(CN)C2 (racemic) [Example 56, 6-(aminomethyl)-N-(isopropylcarbamoyl)-6,7-dihydro-5H-pyrazolo[5,1-b][1,3]oxazine-3-sulfonamide] | > 10000 nM | > 10000 nM | > 10000 nM | – | – | – | –
COc1cc(C(C)C)c(NC(=O)NS(=O)(=O)c2cnn3c2OCC(C)(C)C3)c(C(C)C)n1 [drawing 414] | – | – | – | – | 1000 to 10000 nM | 1000 to 10000 nM | > 10000 nM
